The values that follow are results of earlier work, collected in patent publication US7259153B2, “Drug formulation and delivery using crystalline methylated cyclodextrins” (Supernus Pharmaceuticals, priority 2003, dated 2007).

For the data set the following is noted: set by the WHO; cited from earlier work.

Consider `CC(O)CO` (stereo not shown) [propylene glycol], for which the acceptable daily intake entry is “up to 25 mg/kg body weight”.
